The values that follow come from patent US4173539A, “Cationic surfactant compositions” (Lever Brothers Company, priority 1977, dated 1979).

Each structure is given as a SMILES string. Where “and” joins values, the source holds several entries; their conditions need not be identical. Identical values can stand only once.

Series [1] in a line: Krafft point (Kp) determination. To be noted: aqueous dispersion containing 2% by weight, temperature at which it becomes cloudy on cooling. The class given is physicochemical. As to the method:
A composition of uniform turbidity can be recognised simply by visual observation of a sample which has been placed in a test tube and allowed to stand for 24 hours at ambient temperature. […] The melting point of particles of softening agent can be determined by placing in a hot stage microscope a sample of composition on a glass slide covered by a glass cover slip and observing the temperature at which melting of the particle occurs as a change in shape of the particles indicating deformation of liquid droplets when the cover slip is moved over the slide. The Krafft point (Kp) of the quaternary ammonium chloride can be determined by heating an aqueous dispersion containing 2% by weight of it to a temperature at which a transparent solution is obtained, cooling it, and observing the temperature at which it becomes cloudy. The clear point of the composition can be determined by heating a sample to 95° C.: lack of optical clarity at this temperature is taken as showing that the clear point is above 95° C.

Series [2] can be described thus: Effective normality ratio range of quaternary ammonium salt to anionic surfactant for stable dispersions. The series is classed as physicochemical. From the text:
The ranges of figures in the table are the ranges of normality ratios expressed as quaternary ammonium salt to 1 of anionic surfactant.
There is no specific disclosure of the preparation of aqueous liquid concentrates in these prior publications of stable dispersions containing positively charged particles of quaternary ammonium softeners with single long-chain groups, and to prepare these it is necessary both to select a normality ratio within the operative range for the particular quaternary ammonium salt and anionic surfactant concerned and to employ a method of formulation which gives a homogeneous liquid phase before generating the complex-containing softener particles.

Turning to `CCCCCCCCCCCCCCCCCCCCCC(=O)OCC(O)C[N+](C)(C)C.[Cl-]` (stereo not shown) [3-behenoyloxy-2-hydroxypropyl trimethylammonium chloride], the “Krafft point (Kp)” value was 54 °C and 58 °C in series [1]; 58 °C in series [1] (listed as behenoyl-hydroxypropyltrimethylammonium chloride of Preparation I). Further, the “effective normality ratio range, quaternary ammonium salt to 1 of anionic surfactant” value in series [2] (anionic surfactant: Sodium stearate) was 1.2-3.0.
On to `CCCCCCCCCCCCCCCCCC[N+](C)(C)C.[Cl-]` [stearyltrimethylammonium chloride], for which the “Krafft point (Kp)” value in series [1] came out at 11 °C. Further, the “effective normality ratio range, quaternary ammonium salt to 1 of anionic surfactant” value is reported as 1.4-1.8 in series [2] (anionic surfactant: Sodium C15-C18 olefin sulphonate), 1.5-3.0 in series [2] (anionic surfactant: Sodium linear C10-C15 alkylbenzene sulphonate), 1.3-2.0 in series [2] (anionic surfactant: Sodium random secondary C13-C17 alkane sulphonate) and 1.1-1.6 in series [2] (anionic surfactant: Sodium soap of tallow fatty acids).
In the case of `CCCCCCCCCCCCCCCC[N+](C)(C)Cc1ccccc1.[Cl-]` [cetylbenzyldimethylammonium chloride], in series [1], the “Krafft point (Kp)” value was determined as 16 °C.
Same read-out and setting: under `CCCCCCCCCCCCCCCCCCCCCC(=O)NCCC[N+](C)(C)C.[Cl-]` [behenoylaminopropyl trimethylammonium chloride] stands 60 °C.
